Literature values, collected in patent publication US20240130371A1, “ENVIRONMENTAL PROTECTION SYSTEMS AND METHODS OF GREENHOUSE GAS CAPTURE VIA CALCIUM HYDROXIDE” (priority 2021, published 2024).

Settings: common coronavirus killers

CC(C)O [isopropyl alcohol]
pH: around 8
